A word on the IC50: it is the concentration needed to halve the response being measured. A high value points to weaker potency in that assay.

Common to all, as to format: cell-based
One assay deals with NCI-H358 cells. Description: NCI-H358 cell proliferation inhibition, CCK-8. The conditions noted are these: Homo sapiens, 96 h, NCI-H358, 4 days. The procedure: The complete medium required for NCI-H358 cells is RPMI1640 (ATCC, Product number: 30-2001) basal medium containing 10% fetal bovine serum. NCI-H358 cells were seeded in a 96-well plate at a density of 2,800 cells/well, and the next day, different concentrations of the compounds of the present invention were prepared to treat the cells, and the cells were treated for 4 days in a 37° C., 5% CO2 cell culture incubator. Cell viability was detected using a CCK-8 kit (Beyotime, Product number: C0040) according to the manufacturer's instructions. According to the inhibition rate, the GraphPad Prism software was used to calculate the IC50 value of each compound for 4 days, and the results are shown in Table 5.

The test system of another assay is MV-4-11 cells. The experiment in a line: MV-4-11 cell proliferation inhibition, CCK-8. The conditions noted are these: Homo sapiens, MV4-11, 96 h, MV-4-11, 4 days, Table 8, positive control Ibrutinib. In outline:
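MV-4-11 cells (7,500/well) in IMDM with 10% FBS were exposed to graded compound concentrations for 4 days at 37 °C, 5% CO2. Viability was measured with CCK-8, and IC50 values were derived from inhibition rates.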

A further assay deals with 22RV1 cells. The experiment in a line: 22RV1 cell proliferation inhibition, CCK-8. The following applies: 22RV1, 7 days. How it is done: The complete medium required for 22RV1 cells is RPM11640 (ATCC, Product number: 30-2001) basal medium containing 10% fetal bovine serum. 22RV1 cells were seeded in a 96-well plate at a density of 4,000 cells/well, and the next day, different concentrations of the compound of the present invention and the positive control sample JQ1 (source: Bide Pharmaceuticals) were prepared to treat the cells, and the cells were cultured at 37° C. and 5% CO2 for 7 days in the incubator. Cell viability was detected using the CCK-8 kit (Beyotime, Product number: C0040) according to the manufacturer's instructions. According to the inhibition rate, the GraphPad Prism software was used to calculate the IC50 value of each compound for 7 days, and the results are shown in Table 4.

The next assay deals with Z138 cells. The experiment in a line: Z138 cell proliferation inhibition, CCK-8. The conditions noted are these: Homo sapiens, Z-138, 96 h, Z138, 4 days. The procedure: The complete medium required for Z138 cells is IMDM (ATCC, Product number: 30-2005) basal medium containing 10% horse serum. Z138 cells were seeded in a 96-well plate at a density of 10,000 cells/well, and different concentrations of the compound of the present invention and a positive control sample Ibrutinib (source: Bide Pharmaceuticals) were prepared to treat the cells. The cells were incubated in a 37° C., 5% CO2 cell incubator for 4 days. Cell viability was detected using the CCK-8 kit (Beyotime, Product number: C0040) according to the manufacturer's instructions. According to the inhibition rate, the GraphPad Prism software was used to calculate the IC50 value of each compound for 4 days, and the results are shown in Table 14.

In another assay the test system is MCF-7 cells. The experiment in a line: MCF-7 cell proliferation inhibition, CCK-8. The conditions noted are these: Homo sapiens, MCF7, 216 h, MCF-7, 9 days. How it is done: The complete medium required for MCF-7 cells is DMEM (gibco, Product number: 11995-065) basal medium containing 10% fetal bovine serum. MCF-7 cells were seeded in a 96-well plate at a density of 800/well, and different concentrations of the compound of the present invention and the positive control sample ARV-471 (source: Enochem) were prepared to treat the cells. The cells were incubated at 37° C., 5% 9 days in a CO2 cell incubator. Cell viability was detected using the CCK-8 kit (Beyotime, Product number: C0040) according to the manufacturer's instructions. According to the inhibition rate, GraphPadPrism software was used to calculate the IC50 value of each compound for 9 days, and the results are shown in Table 18.

For another assay, the system named is T-47D cells. Description: T-47D cell proliferation inhibition, CCK-8. The conditions noted are these: Homo sapiens, T47D, 144 h, 6 days. How it is done: The complete medium required for T-47D cells is 1640 (ATCC, Product number: A10491-01) basal medium containing 10% fetal bovine serum. T-47D cells were seeded in a 96-well plate at a density of 3,000/well, and different concentrations of the compound of the present invention and the positive control sample ARV-471 (source: Innochem) were prepared to treat the cells. The cells were incubated at 37° C., 5% for 6 days in a CO2 cell incubator. Cell viability was detected using the CCK-8 kit (Beyotime, Product number: C0040) according to the manufacturer's instructions. According to the inhibition rate, the GraphPadPrism software was used to calculate the IC50 value of each compound for 6 days, and the results are shown in Table 17.

For `COc1cc2ncnc(Nc3ccc(F)c(Cl)c3)c2cc1OCCCN1CCN(CCOCCC(=O)N2CCC3(CC2)COc2cc4c(cc2C3)C(=O)N(C2CCC(=O)NC2=O)C4=O)CC1` (stereo not shown) [PROTAC 22, 1-(3-(2-(4-(3-((4-((3-chloro-4-fluorophenyl)amino)-7-methoxyquinazolin-6-yl)oxy)propyl)piperazin-1-yl)ethoxy)propionyl)-7′-(2,6-dioxopiperidin-3-yl)-2′H-spiro[piperidine-4,3′-pyrano[2,3-f]isoindole]-6′,8′(4′H,7′H)-dione], 52100 nM corresponded to half-maximal inhibition in the assay on NCI-H358 cells (IC50).

In the case of `COc1cc2ncnc(Nc3ccc(F)c(Cl)c3)c2cc1OCCCN1CCN(CCOCCC(=O)N2CCC3(CC2)COc2cc4c(cc23)C(=O)N(C2CCC(=O)NC2=O)C4=O)CC1` (stereo not shown) [PROTAC 24, 1′-(3-(2-(4-(3-((4-((3-chloro-4-fluorophenyl)amino)-7-methoxyquinazolin-6-yl)oxy)propyl)piperazin-1-yl)ethoxy)propionyl)-6-(2,6-dioxopiperidin-3-yl)-6-hydro-2H,5H-spiro[furo[2,3-f]isoindole-3,4′-piperdine]-5,7-dione], it took 31200 nM to reach half-maximal inhibition with NCI-H358 cells (IC50).

Regarding `Cc1sc2c(c1C)C(c1ccc(Cl)cc1)=N[C@@H](CC(=O)N1CCC3(CCc4cc5c(cc4O3)CN(C3CCC(=O)NC3=O)C5=O)CC1)c1nnc(C)n1-2` (stereo partly drawn) [PROTAC 47, 3-(1-(2-((S)-4-(4-chlorophenyl)-2,3,9-trimethyl-6H-thieno[3,2-f][1,2,4]triazolo[4,3-a][1,4]diazepine-6-yl)acetyl)-6′-oxo-3′,4′,6′,8′-tetrahydro-7′H-spiro[piperidine-4,2′-pyrano[2,3-f]isoindole]-7′-yl)piperidine-2,6-dione], the IC50 worked out at 17 nM in the assay with MV-4-11 cells and 103 nM in the assay with 22RV1 cells (Homo sapiens, 168 h).

Consider `Cc1sc2c(c1C)C(c1ccc(Cl)cc1)=N[C@@H](CC(=O)N1CC3(CCc4cc5c(cc4O3)C(=O)N(C3CCC(=O)NC3=O)C5=O)C1)c1nnc(C)n1-2` (stereo partly drawn) [PROTAC 51, 1-(2-((S)-4-(4-chlorophenyl)-2,3,9-trimethyl-6H-thieno[3,2-f][1,2,4]triazole[4,3-a][1,4]diazepine-6-yl)acetyl)-7′-(2,6-dioxopiperidin-3-yl)-3′,4′-dihydro-6′H-spiro[azetidine-3,2′-pyrano[2,3-f]isoindole]-6′,8′(7′H)-dione], for which the half-inhibitory concentration (IC50) came out at 20 nM in the assay on MV-4-11 cells and 123 nM with 22RV1 cells (Homo sapiens, 168 h).

As to `Cc1sc2c(c1C)C(c1ccc(Cl)cc1)=N[C@@H](CC(=O)N1CCC3(CCc4cc5c(cc4O3)C(=O)N(C3CCC(=O)NC3=O)C5=O)CC1)c1nnc(C)n1-2` (stereo partly drawn) [PROTAC 50, 1-(2-((S)-4-(4-chlorophenyl)-2,3,9-trimethyl-6H-thieno[3,2-f][1,2,4]triazole[4,3-a][1,4]diazepine-6-yl)acetyl)-7′-(2,6-dioxopiperidin-3-yl)-3′,4′-dihydro-6′H-spiro[piperidine-4,2′-pyrano[2,3-f]isoindole]-6′,8′(7′H)-dione], the IC50 in the assay with MV-4-11 cells was determined as 6.9 nM; with 22RV1 cells (Homo sapiens, 168 h), 15 nM.

As for `Nc1ncnc2c1c(-c1ccc(Oc3ccccc3)cc1)nn2[C@@H]1CCCN(CCOCCC(=O)N2CCC3(CC2)COc2cc4c(cc2C3)C(=O)N(C2CCC(=O)NC2=O)C4=O)C1` (stereo partly drawn) [PROTAC 34, 1-(3-(2-((R)-3-(4-amino-3-(4-phenoxyphenyl)-1H-pyrazolo[3,4-d]pyrimidin-1-yl)piperidin-1-yl)ethoxy)propionyl)-7′-(2,6-dioxopiperidin-3-yl)-2′H-spiro[piperidine-4,3′-pyrano[2,3-f]isoindole]-6′,8′(4′H,7′H)-dione], in the assay on Z138 cells, the IC50 stood at 13900 nM.

`C=CC(=O)N1CCC[C@@H](n2nc(-c3ccc(Oc4ccccc4)cc3)c3c(N)ncnc32)C1` [Ibrutinib, reference compound]: the results for the IC50 in the assay on Z138 cells and in the assay on MV-4-11 cells were 21100 nM and 77 nM, respectively.

Regarding `Cc1sc2c(c1C)C(c1ccc(Cl)cc1)=N[C@@H](CC(=O)N1CCC3(CCc4cc5c(cc4O3)C(=O)N(C3CCC(=O)NC3=O)C5)CC1)c1nnc(C)n1-2` (stereo partly drawn) [PROTAC 48, 3-(1-(2-((S)-4-(4-chlorophenyl)-2,3,9-trimethyl-6H-thieno[3,2-f][1,2,4]triazolo[4,3-a][1,4]diazepine-6-yl)acetyl)-8′-oxo-3′,4′,6′,8′-tetrahydro-7′H-spiro[piperidine-4,2′-pyrano[2,3-f]isoindole]-7′-yl)piperidine-2,6-dione], the IC50 in the assay on MV-4-11 cells came to 0.96 nM; in the assay with 22RV1 cells (Homo sapiens, 168 h), 24 nM.

With `Cc1sc2c(c1C)C(c1ccc(Cl)cc1)=N[C@@H](CC(=O)N1CCC3(CC1)COc1cc4c(cc1O3)CN(C1CCC(=O)NC1=O)C4=O)c1nnc(C)n1-2` (stereo partly drawn) [PROTAC 49, 3-(1-(2-((S)-4-(4-chlorophenyl)-2,3,9-trimethyl-6H-thieno[3,2-f][1,2,4]triazolo[4,3-a][1,4]diazepine-6-yl)acetyl)-6′-oxo-6′,8′-dihydro-3′H,7′H-spiro[piperidin-4,2′-[1,4]dioxino[2,3-f]isoindole]-7′-yl)piperidine-2,6-dione], the IC50 with MV-4-11 cells came to 8.2 nM; in the assay with 22RV1 cells (Homo sapiens, 168 h) it was 141 nM.

`Cc1sc2c(c1C)C(c1ccc(Cl)cc1)=N[C@@H](CC(=O)N1CC3(CCc4cc5c(cc4O3)CN(C3CCC(=O)NC3=O)C5=O)C1)c1nnc(C)n1-2` (stereo partly drawn) [PROTAC 46, 3-(1-(2-((S)-4-(4-chlorophenyl)-2,3,9-trimethyl-6H-thieno[3,2-f][1,2,4]triazolo[4,3-a][1,4]diazepine-6-yl)acetyl)-6′-oxo-3′,4′,6′,8′-tetrahydro-7′H-spiro[azetidine-3,2′-pyrano[2,3-f]isoindole]-7′-yl)piperidine-2,6-dione]: the IC50 in the assay on MV-4-11 cells amounted to 5.4 nM; in the assay with 22RV1 cells (Homo sapiens, 168 h) it was 226 nM.

On to `O=C1CCC(N2Cc3cc4c(cc3C2=O)CCC2(CN(C3CC5(CCN(c6ccc([C@@H]7c8ccc(O)cc8CC[C@@H]7c7ccccc7)cc6)CC5)C3)C2)O4)C(=O)N1` (stereo partly drawn) [PROTAC 56, 3-(1-(7-(4-((1R,2S)-6-hydroxy-2-phenyl-1,2,3,4-tetrahydronaphthalen-1-yl)phenyl)-7-azaspiro[3.5]non-2-yl)-6′-oxo-3′,4′,6′,8′-tetrahydro-7′H-spiro[azetidine-3,2′-pyrano[2,3-f]isoindol]-7′-yl)piperidine-2,6-dione], for which the IC50 with MCF-7 cells turned out to be 70 nM; with T-47D cells, 1.6 nM.

On to `O=C1CCC(N2Cc3ccc4c(c3C2=O)OCC2(CCN(C3CCC5(CC3)CCN(c3ccc([C@@H]6c7ccc(O)cc7CC[C@@H]6c6ccccc6)cc3)CC5)CC2)C4)C(=O)N1` (stereo partly drawn) [PROTAC 59, 3-(1-(3-(4-((1R,2S)-6-hydroxy-2-phenyl-1,2,3,4-tetrahydronaphthalen-1-yl)phenyl)-3-azaspiro[5.5]undec-9-yl)-9′-oxo-7′,9′-dihydro-2′H-spiro[piperidin-4,3′-pyrano[2,3-f]isoindole]-8′(4′H)-yl)piperidine-2,6-dione], for which the IC50 with MCF-7 cells is 130 nM; in the assay on T-47D cells it was 5.2 nM.

In the assay on 22RV1 cells, `Cc1sc2c(c1C)C(c1ccc(Cl)cc1)=N[C@@H](CC(=O)OC(C)(C)C)c1nnc(C)n1-2` [JQ1, reference compound] displayed an IC50 of 44 nM.

The values above are taken from patent US20250129088A1, “CEREBLON E3 UBIQUITIN LIGASE INHIBITOR” (Gan & Lee Pharmaceuticals Co., Ltd., priority 2022, published 2025).
